Patent US20210196714A1, “COMPOSITIONS AND METHODS FOR TREATING DISORDERS CHARACTERIZED WITH ABERRANT RAS/MAPK SIGNALING” (Duke University, priority 2018, published 2021)
Entries after “also recorded” stand apart in the source; their conditions may differ.

Tests used:
[1] = Solubility test in egg water; format: physicochemical; details: DMSO stock diluted in water (100×)
Protocol: To guard against possible bias, the tool and negative control compounds were interspersed across the experiment and the zebrafish phenotyping team was blinded to the identity of each compound. Typical of small molecule storage, each of the 29 compounds was dissolved in dimethyl sulfoxide (DMSO). Therefore, such compounds were first diluted in water (100×) and its solubility tested in egg water; three compounds were insoluble and were thus removed from further testing (see, FIG. 1A). Next, each compound was diluted serially with egg water and toxicity tested by assaying the percentage of abnormal or dead embryos across three different concentrations (10 μM, 1 μM, 100 nM; FIG. 1B).

[2] = tested on: rap1- and kdm6a-depleted zebrafish; assay: CE defects caused by loss of rap1 and kdm6a; format: in vivo
Protocol: FIG. 4: Compound 8 ameliorates the CE and jaw defects caused by loss of rap/and kdm6a. (a) gRNA targeting both zebrafish rap1a and rap1b were injected into embryos at the 1-cell stage with Cas9 protein. Larvae were incubated with compound 8 (100 nM) at the 8-cell stage and scored for micrognathia. 5 dpf larvae were stained with Alcian blue to assess the layout of the jaw cartilage. In comparison to control embryos (top), rap1-CRISPR embryos have smaller jaws. […] (b) Quantitative measurement of the distance between MK and CH cartilages. (c) Larvae were scored for CE (n>30 for each concentration). (d) 5 dpf embryos were stained with Alcian blue to assess the layout of jaw cartilage. […] (e) Quantitative measurement of the distance between MK and CH cartilages. *p<0.05; ***p<0.001. […]
(§1) For convergence and extension (CE) phenotyping, embryos were scored as described (see, Leitch, C. C. et al. Nat Genet 40, 443-8 (2008)) at the 8-10 somite stage, and images were captured using an AZ100 microscope and NIS Elements software (Nikon). […] The distance between Meckel's (MK) and ceratohyal (CH) cartilages was measured on ventral bright field images with Image J (NIH). […] Fluorescence signal on embryo heads was imaged with the Nikon AZ100 microscope and DS-Qi1MC digital camera using […] Z-stacks to generate extended depth of focus images. Cell numbers were quantified using the ImageJ ICTN plugin (NIH). […]

kdm6a morphants = assay: Brain cell proliferation (pHH3 immunostaining) in kdm6a morphants; format: in vivo, zebrafish; details: 100 nM, 2 dpf, listed as dmDf
Source text: Intellectual disability represents a major phenotype in KS, with some studies reporting almost 90% of patients to be affected (see, Wessels, M. W., et al. Clin Dysmorphol 11, 95-102 (2002)). […] Previous studies have shown that defects in proliferation in the developing zebrafish brain can be a proxy for neurodevelopmental and neurocognitive traits, especially in the context of microcephaly (see, Borck, G. et al. Genome Res 25, 609 (2015); Brooks, S. S. et al. Genetics 198, 723-33 (2014); O'Rawe, J. A. et al. Am J Hum Genet 97, 922-32 (2015); Wortmann, S. B. et al. Am J Hum Genet 96, 245-57 (2015)), a phenotype reported commonly in KS (see, Matsumoto, N. & Niikawa, N. Am J Med Genet C Semin Med Genet 117C, 57-65 (2003)).
as §1

[3] = tested on: kmt2d+/−×kmt2d+/− progeny; assay: CE defect in stable kmt2d mutant intercross progeny; format: in vivo, zebrafish; details: 100 mM dmDf, 1 dpf
Source text: (§2) FIG. 12: Treatment with dmDf rescues the defects of stable kmt2d mutant. kmt2d+/− adults were in-crossed and the embryos were then collected at 1 dpf, 2 dpf and 5 dpf to assess dmDf efficacy. […] Error bars show SEM (standard error of the mean).
(§3) Although the small molecule testing data in CRISPR F0 mosaic models are consistent with morphant phenotypes (and rescue), experiments recognized the necessity of testing the potential efficacy of dmDf in a stable genetic model that is a better genotypic proxy to human patients. […] In addition to examining proliferation of cells in the brain, experiments assessed whether neural differentiation is affected (see, Van Laarhoven, P. M. et al. Hum Mol Genet 24, 4443-53 (2015)).
as §1

[4] = tested on: kmt2d+/−×kmt2d+/− progeny; assay: Brain cell proliferation in stable kmt2d mutant intercross progeny; format: in vivo, zebrafish; details: 100 mM dmDf, 2 dpf
Source text: as §2, §3, §1

[5] = tested on: zebrafish kmt2d morphants; assay: Rescue of convergent-extension (CE) phenotype in kmt2d morphants; format: in vivo; details: dose response

Structure (SMILES): CC(C)c1nc(-c2cccc(NS(=O)(=O)c3c(F)cccc3F)c2F)c(-c2ccnc(N)n2)s1 [Compound 8, desmethyl-Dabrafenib]
- solubility tested in egg water [1]: soluble
- CE defects [2]: ameliorates
- total number of proliferating (pHH3+) cells in brain (kdm6a morphants): significantly increases pHH3+ proliferating cells; also recorded: restored the total number of proliferating cells to wild type levels
- CE defect [3]: ameliorates significantly
- embryos showing Class I or Class II CE defects ([3]; p<0.001): 20%
- number of proliferating cells in the brain [4]: increases significantly; also recorded: rescued
- CE defects at 50 nM and 100 nM doses ([5]; 50 and 100 nM): Significant rescue
- CE rescue at dosages beyond 100 nM ([5]; above 100 nM up to 1 μM): higher dosages did not improve efficacy any further
